Assay results as given in ChEMBL document CHEMBL5724806, “Unraveling interindividual differences and functional consequences of gut microbial metabolism of immunosuppressants” (2024).

Columns and labels:
Assay type in all cases: ADME
[1] = (§1) The drug is tested on Actinomyces naeslundi strain: DSM43013 for biotransformation under anaerobic condition. The drug concentrations were measured over 6 timepoints collected between 0 and 12 hours of incubation by liquid-chromatography-coupled mass spectrometry (LC–MS); parameters: dose 5 uM, timepoint 0, 1.5, 3, 6, 9, 12 hours; conditions: actinomyces naeslundii, 5 µM
[2] = The drug is tested on Bifidobacterium longum strain: DSM20088 for biotransformation under anaerobic condition. The drug concentrations were measured over 6 timepoints collected between 0 and 12 hours of incubation by liquid-chromatography-coupled mass spectrometry (LC–MS); parameters: dose 5 uM, timepoint 0, 1.5, 3, 6, 9, 12 hours; conditions: 5 µM
[3] = The drug is tested on Collinsella aerofaciens strain: DSM3979 for biotransformation under anaerobic condition. The drug concentrations were measured over 6 timepoints collected between 0 and 12 hours of incubation by liquid-chromatography-coupled mass spectrometry (LC–MS); parameters: dose 5 uM, timepoint 0, 1.5, 3, 6, 9, 12 hours; conditions: 5 µM
[4] = The drug is tested on Bacteroides ovatus strain: ATCC 8483 for biotransformation under anaerobic condition. The drug concentrations were measured over 6 timepoints collected between 0 and 12 hours of incubation by liquid-chromatography-coupled mass spectrometry (LC–MS); parameters: dose 5 uM, timepoint 0, 1.5, 3, 6, 9, 12 hours; conditions: 5 µM
[5] = The drug is tested on Bacteroides stercoris strain: HM 1036 for biotransformation under anaerobic condition. The drug concentrations were measured over 6 timepoints collected between 0 and 12 hours of incubation by liquid-chromatography-coupled mass spectrometry (LC–MS); parameters: dose 5 uM, timepoint 0, 1.5, 3, 6, 9, 12 hours; conditions: 5 µM
[6] = The drug is tested on Bacteroides thetaiotaomicron strain: DSM2079 for biotransformation under anaerobic condition. The drug concentrations were measured over 6 timepoints collected between 0 and 12 hours of incubation by liquid-chromatography-coupled mass spectrometry (LC–MS); parameters: dose 5 uM, timepoint 0, 1.5, 3, 6, 9, 12 hours; conditions: 5 µM
[7] = The drug is tested on Bacteroides vulgatus strain: DSM1447 for biotransformation under anaerobic condition. The drug concentrations were measured over 6 timepoints collected between 0 and 12 hours of incubation by liquid-chromatography-coupled mass spectrometry (LC–MS); parameters: dose 5 uM, timepoint 0, 1.5, 3, 6, 9, 12 hours; conditions: phocaeicola vulgatus, 5 µM
[8] = The drug is tested on Odoribacter splanchnicus strain: DSM20712 for biotransformation under anaerobic condition. The drug concentrations were measured over 6 timepoints collected between 0 and 12 hours of incubation by liquid-chromatography-coupled mass spectrometry (LC–MS); parameters: dose 5 uM, timepoint 0, 1.5, 3, 6, 9, 12 hours; conditions: 5 µM
[9] = The drug is tested on Clostridium bolteae strain: DSM15670 for biotransformation under anaerobic condition. The drug concentrations were measured over 6 timepoints collected between 0 and 12 hours of incubation by liquid-chromatography-coupled mass spectrometry (LC–MS); parameters: dose 5 uM, timepoint 0, 1.5, 3, 6, 9, 12 hours; conditions: enterocloster bolteae, 5 µM
[10] = The drug is tested on Coprococcus comes strain: ATCC27758 for biotransformation under anaerobic condition. The drug concentrations were measured over 6 timepoints collected between 0 and 12 hours of incubation by liquid-chromatography-coupled mass spectrometry (LC–MS); parameters: dose 5 uM, timepoint 0, 1.5, 3, 6, 9, 12 hours; conditions: 5 µM
[11] = The drug is tested on Roseburia intestinalis strain: DSM14610 for biotransformation under anaerobic condition. The drug concentrations were measured over 6 timepoints collected between 0 and 12 hours of incubation by liquid-chromatography-coupled mass spectrometry (LC–MS); parameters: dose 5 uM, timepoint 0, 1.5, 3, 6, 9, 12 hours; conditions: 5 µM
[12] = The drug is tested on Ruminococcus gnavus strain: ATCC29149 for biotransformation under anaerobic condition. The drug concentrations were measured over 6 timepoints collected between 0 and 12 hours of incubation by liquid-chromatography-coupled mass spectrometry (LC–MS); parameters: dose 5 uM, timepoint 0, 1.5, 3, 6, 9, 12 hours; conditions: mediterraneibacter gnavus, 5 µM
[13] = The drug is tested on Streptococcus mitis strain: DSM12643 for biotransformation under anaerobic condition. The drug concentrations were measured over 6 timepoints collected between 0 and 12 hours of incubation by liquid-chromatography-coupled mass spectrometry (LC–MS); parameters: dose 5 uM, timepoint 0, 1.5, 3, 6, 9, 12 hours; conditions: 5 µM
[14] = The drug is tested on Escherichia coli strain: DSM27469 for biotransformation under anaerobic condition. The drug concentrations were measured over 6 timepoints collected between 0 and 12 hours of incubation by liquid-chromatography-coupled mass spectrometry (LC–MS); parameters: dose 5 uM, timepoint 0, 1.5, 3, 6, 9, 12 hours; conditions: 5 µM
[15] = (§2) The drug is tested on Alloscardovia omnicolens strain: DSM21503 for biotransformation under microaerobic condition. The drug concentrations were measured over 6 timepoints collected between 0 and 12 hours of incubation by liquid-chromatography-coupled mass spectrometry (LC–MS); parameters: dose 5 uM, timepoint 0, 1.5, 3, 6, 9, 12 hours; conditions: 5 µM
[16] = The drug is tested on Bifidobacterium longum strain: DSM20088 for biotransformation under microaerobic condition. The drug concentrations were measured over 6 timepoints collected between 0 and 12 hours of incubation by liquid-chromatography-coupled mass spectrometry (LC–MS); parameters: dose 5 uM, timepoint 0, 1.5, 3, 6, 9, 12 hours; conditions: 5 µM
[17] = The drug is tested on Gemella morbillorum strain: DSM20572 for biotransformation under microaerobic condition. The drug concentrations were measured over 6 timepoints collected between 0 and 12 hours of incubation by liquid-chromatography-coupled mass spectrometry (LC–MS); parameters: dose 5 uM, timepoint 0, 1.5, 3, 6, 9, 12 hours; conditions: 5 µM
[18] = The drug is tested on Enterococcus faecalis strain: ATCC29212 for biotransformation under microaerobic condition. The drug concentrations were measured over 6 timepoints collected between 0 and 12 hours of incubation by liquid-chromatography-coupled mass spectrometry (LC–MS); parameters: dose 5 uM, timepoint 0, 1.5, 3, 6, 9, 12 hours; conditions: 5 µM
[19] = as §1, with “the gut metagenome community of A-03 with ENA study accession number: PRJEB31790” for “Actinomyces naeslundi strain: DSM43013”, “7” for “6”; parameters: dose 5 uM, timepoint 0, 0.75, 1.5, 3, 6, 9, 12 hours; conditions: 5 µM
[20] = as §1, with “the gut metagenome community of A-04 with ENA study accession number: PRJEB31790” for “Actinomyces naeslundi strain: DSM43013”, “7” for “6”; parameters: dose 5 uM, timepoint 0, 0.75, 1.5, 3, 6, 9, 12 hours; conditions: 5 µM
[21] = as §1, with “the gut metagenome community of A-08 with ENA study accession number: PRJEB31790” for “Actinomyces naeslundi strain: DSM43013”, “7” for “6”; parameters: dose 5 uM, timepoint 0, 0.75, 1.5, 3, 6, 9, 12 hours; conditions: 5 µM
[22] = as §1, with “the gut metagenome community of P-03 with ENA study accession number: PRJEB31790” for “Actinomyces naeslundi strain: DSM43013”, “7” for “6”; parameters: dose 5 uM, timepoint 0, 0.75, 1.5, 3, 6, 9, 12 hours; conditions: 5 µM
[23] = as §1, with “the gut metagenome community of T-01 with ENA study accession number: PRJEB31790” for “Actinomyces naeslundi strain: DSM43013”, “7” for “6”; parameters: dose 5 uM, timepoint 0, 0.75, 1.5, 3, 6, 9, 12 hours; conditions: 5 µM
[24] = as §2, with “the gut metagenome community of A-02 with ENA study accession number: PRJEB31790” for “Alloscardovia omnicolens strain: DSM21503”, “7” for “6”; parameters: dose 5 uM, timepoint 0, 0.75, 1.5, 3, 6, 9, 12 hours; conditions: 5 µM
[25] = as §2, with “the gut metagenome community of A-04 with ENA study accession number: PRJEB31790” for “Alloscardovia omnicolens strain: DSM21503”, “7” for “6”; parameters: dose 5 uM, timepoint 0, 0.75, 1.5, 3, 6, 9, 12 hours; conditions: 5 µM
[26] = as §2, with “the gut metagenome community of A-07 with ENA study accession number: PRJEB31790” for “Alloscardovia omnicolens strain: DSM21503”, “7” for “6”; parameters: dose 5 uM, timepoint 0, 0.75, 1.5, 3, 6, 9, 12 hours; conditions: 5 µM
[27] = as §2, with “the gut metagenome community of P-02 with ENA study accession number: PRJEB31790” for “Alloscardovia omnicolens strain: DSM21503”, “7” for “6”; parameters: dose 5 uM, timepoint 0, 0.75, 1.5, 3, 6, 9, 12 hours; conditions: 5 µM
[28] = as §2, with “the gut metagenome community of T-01 with ENA study accession number: PRJEB31790” for “Alloscardovia omnicolens strain: DSM21503”, “7” for “6”; parameters: dose 5 uM, timepoint 0, 0.75, 1.5, 3, 6, 9, 12 hours; conditions: 5 µM
[29] = as §2, with “the gut metagenome community of T-03 with ENA study accession number: PRJEB31790” for “Alloscardovia omnicolens strain: DSM21503”, “7” for “6”; parameters: dose 5 uM, timepoint 0, 0.75, 1.5, 3, 6, 9, 12 hours; conditions: 5 µM
[30] = as §2, with “the gut metagenome community of T-04 with ENA study accession number: PRJEB31790” for “Alloscardovia omnicolens strain: DSM21503”, “7” for “6”; parameters: dose 5 uM, timepoint 0, 0.75, 1.5, 3, 6, 9, 12 hours; conditions: 5 µM

Row | SMILES | Bacterial Biotransformation [1] | Bacterial Biotransformation [2] | Bacterial Biotransformation [3] | Bacterial Biotransformation [4] | Bacterial Biotransformation [5] | Bacterial Biotransformation [6] | Bacterial Biotransformation [7] | Bacterial Biotransformation [8] | Bacterial Biotransformation [9] | Bacterial Biotransformation [10] | Bacterial Biotransformation [11] | Bacterial Biotransformation [12] | Bacterial Biotransformation [13] | Bacterial Biotransformation [14] | Bacterial Biotransformation [15] | Bacterial Biotransformation [16] | Bacterial Biotransformation [17] | Bacterial Biotransformation [18] | Bacterial Biotransformation [19] | Bacterial Biotransformation [20] | also measured
1 | CCOC(=O)[C@H](CCc1ccccc1)N[C@@H](C)C(=O)N1[C@H](C(=O)O)C[C@@H]2CCC[C@@H]21 | Compound NOT metabolized | Compound NOT metabolized | Compound NOT metabolized | Compound NOT metabolized | Compound NOT metabolized | Compound NOT metabolized | Compound NOT metabolized | Compound NOT metabolized | Compound NOT metabolized | Compound NOT metabolized | Compound NOT metabolized | Compound NOT metabolized | Compound NOT metabolized | Compound NOT metabolized | Compound NOT metabolized | Compound NOT metabolized | Compound NOT metabolized | Compound NOT metabolized | Compound NOT metabolized | Compound NOT metabolized | Bacterial Biotransformation [21]: Compound NOT metabolized; Bacterial Biotransformation [22]: Compound NOT metabolized; Bacterial Biotransformation [23]: Compound NOT metabolized; Bacterial Biotransformation [24]: Compound NOT metabolized; Bacterial Biotransformation [25]: Compound NOT metabolized; Bacterial Biotransformation [26]: Compound NOT metabolized; Bacterial Biotransformation [27]: Compound NOT metabolized; Bacterial Biotransformation [28]: Compound NOT metabolized; Bacterial Biotransformation [29]: Compound NOT metabolized; Bacterial Biotransformation [30]: Compound NOT metabolized
2 | C=CC[C@@H]1/C=C(\C)C[C@H](C)C[C@H](OC)[C@H]2O[C@@](O)(C(=O)C(=O)N3CCCC[C@H]3C(=O)O[C@H](/C(C)=C/[C@@H]3CC[C@@H](O)[C@H](OC)C3)[C@H](C)[C@@H](O)CC1=O)[C@H](C)C[C@@H]2OC.O [TACROLIMUS] | Compound NOT metabolized | Compound NOT metabolized | Compound metabolized | Compound NOT metabolized | Compound NOT metabolized | Compound NOT metabolized | Compound NOT metabolized | Compound NOT metabolized | Compound NOT metabolized | Compound metabolized | Compound metabolized | Compound NOT metabolized | Compound NOT metabolized | Compound NOT metabolized | Compound NOT metabolized | Compound NOT metabolized | Compound NOT metabolized | Compound NOT metabolized | Compound NOT metabolized | Compound metabolized | Bacterial Biotransformation [21]: Compound metabolized; Bacterial Biotransformation [22]: Compound NOT metabolized; Bacterial Biotransformation [23]: Compound metabolized; Bacterial Biotransformation [24]: Compound metabolized; Bacterial Biotransformation [25]: Compound metabolized; Bacterial Biotransformation [26]: Compound metabolized; Bacterial Biotransformation [27]: Compound NOT metabolized; Bacterial Biotransformation [28]: Compound metabolized; Bacterial Biotransformation [29]: Compound NOT metabolized; Bacterial Biotransformation [30]: Compound metabolized
3 | C[C@]12CCC(=O)C=C1CC[C@@H]1[C@@H]2C(=O)C[C@@]2(C)[C@H]1CC[C@]2(O)C(=O)CO [CORTISONE] | Compound NOT metabolized | Compound NOT metabolized | Compound NOT metabolized | Compound NOT metabolized | Compound NOT metabolized | Compound NOT metabolized | Compound NOT metabolized | Compound NOT metabolized | Compound NOT metabolized | Compound NOT metabolized | Compound NOT metabolized | Compound metabolized | Compound NOT metabolized | Compound NOT metabolized | Compound NOT metabolized | Compound NOT metabolized | Compound NOT metabolized | Compound NOT metabolized | Compound metabolized | Compound metabolized | Bacterial Biotransformation [21]: Compound metabolized; Bacterial Biotransformation [22]: Compound metabolized; Bacterial Biotransformation [23]: Compound metabolized; Bacterial Biotransformation [24]: Compound metabolized; Bacterial Biotransformation [25]: Compound metabolized; Bacterial Biotransformation [26]: Compound metabolized; Bacterial Biotransformation [27]: Compound metabolized; Bacterial Biotransformation [28]: Compound metabolized; Bacterial Biotransformation [29]: Compound NOT metabolized; Bacterial Biotransformation [30]: Compound NOT metabolized
